Measurements taken from paper PMC6500773 (Psychopharmacology, 2018).
Where two headings read alike, the source gives them in different places.

What was measured:
hDAT [1] = biological target: T1, hDAT (Homo sapiens, UniProt Q01959); conditions: cited from earlier work; for Ratio DAT/SERT: 1/(DAT IC50) divided by 1/(SERT IC50), uptake, ref Eshleman et al. 2017
hNET [2] = biological target: T2, hNET (Homo sapiens, UniProt P23975); experiment: cell-based
hSERT [3] = biological target: T3, hSERT (Homo sapiens, UniProt P31645); conditions: relative to maximal METH release; ref Eshleman et al. 2017; cited from earlier work
hNET [4] = biological target: T2, hNET; conditions: ref Eshleman et al. 2017, cited from earlier work
hDAT [5] = biological target: T1, hDAT; experiment: Inhibition of [3H]DA uptake by HEK-hDAT cells; format: cell-based; conditions: for Ratio DAT/SERT: 1/(DAT IC50) divided by 1/(SERT IC50), uptake, higher = more DAT selective
hDAT [6] = biological target: T1, hDAT; experiment: Inhibition of [125I]RTI-55 binding, HEK-hDAT membranes
hNET [7] = biological target: T2, hNET; experiment: biochemical; format: binding
hDAT [8] = biological target: T1, hDAT; conditions: relative to maximal METH release; ref Eshleman et al. 2017; cited from earlier work
hNET [9] = biological target: T2, hNET; conditions: read-out: Inhibition of [3H]neurotransmitter uptake IC50 ± sem, hNET [3H]NE; HEK-hNET cells; ref Eshleman et al. 2017; cited from earlier work
hSERT [10] = biological target: T3, hSERT; experiment: Drug-induced release of preloaded [3H]5-HT from HEK-hSERT cells; format: cell-based; conditions: for releasing efficacy at hSERT: [3H]5-HT release; for % maximum release ± sem, hSERT [3H]5-HT: relative to maximal AUC induced by METH (0.3–1 mM)
hDAT [11] = biological target: T1, hDAT; experiment: Drug-induced release of preloaded [3H]DA from HEK-hDAT cells; format: cell-based; conditions: for releasing efficacy at hDAT: [3H]DA release; for % maximum release ± sem, hDAT [3H]DA: relative to maximal AUC induced by METH (1 or 10 μM)
hNET [12] = biological target: T2, hNET; experiment: Drug-induced release of preloaded [3H]NE from HEK-hNET cells; format: cell-based; conditions: for releasing efficacy at hNET: [3H]NE release; for % maximum release ± sem, hNET [3H]NE: relative to maximal AUC induced by METH (0.3 or 1 μM)
mouse striatum = conditions: administered orally, ref Fuwa et al. 2016; cited from earlier work
hSERT [13] = biological target: T3, hSERT; experiment: Inhibition of [3H]5-HT uptake by HEK-hSERT cells; format: cell-based
hSERT [14] = biological target: T3, hSERT; experiment: Inhibition of [125I]RTI-55 binding, HEK-hSERT membranes
[15] = read-out: Drug-induced release of [3H]neurotransmitter EC50 ± sem, hNET [3H]NE, HEK-hNET cells
[16] = read-out: Inhibition of [125I]RTI-55 binding Ki ± sem, hDAT, HEK-hDAT membranes
[17] = read-out: Inhibition of [3H]neurotransmitter uptake IC50 ± sem, hNET [3H]NE, HEK-hNET cells
[18] = read-out: Inhibition of [125I]RTI-55 binding Ki ± sem, hNET, HEK-hNET membranes

T2 sequence (P23975 whole entry): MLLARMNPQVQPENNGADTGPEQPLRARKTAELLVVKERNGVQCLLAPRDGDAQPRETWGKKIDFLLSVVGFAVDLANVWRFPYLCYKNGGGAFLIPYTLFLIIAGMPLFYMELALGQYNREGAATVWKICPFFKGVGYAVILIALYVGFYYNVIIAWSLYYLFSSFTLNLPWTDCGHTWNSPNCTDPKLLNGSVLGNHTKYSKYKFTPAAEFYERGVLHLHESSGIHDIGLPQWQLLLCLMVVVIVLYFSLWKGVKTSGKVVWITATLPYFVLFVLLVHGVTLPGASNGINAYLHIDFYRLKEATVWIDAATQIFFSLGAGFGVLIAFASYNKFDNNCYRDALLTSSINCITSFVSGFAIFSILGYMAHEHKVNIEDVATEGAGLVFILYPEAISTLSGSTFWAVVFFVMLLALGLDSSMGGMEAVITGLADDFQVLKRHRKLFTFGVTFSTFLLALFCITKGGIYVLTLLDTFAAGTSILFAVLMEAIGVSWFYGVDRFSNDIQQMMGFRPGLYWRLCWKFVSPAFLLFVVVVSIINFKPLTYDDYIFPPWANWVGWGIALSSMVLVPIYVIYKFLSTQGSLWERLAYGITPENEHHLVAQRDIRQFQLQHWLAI
T3 sequence (P31645 whole entry): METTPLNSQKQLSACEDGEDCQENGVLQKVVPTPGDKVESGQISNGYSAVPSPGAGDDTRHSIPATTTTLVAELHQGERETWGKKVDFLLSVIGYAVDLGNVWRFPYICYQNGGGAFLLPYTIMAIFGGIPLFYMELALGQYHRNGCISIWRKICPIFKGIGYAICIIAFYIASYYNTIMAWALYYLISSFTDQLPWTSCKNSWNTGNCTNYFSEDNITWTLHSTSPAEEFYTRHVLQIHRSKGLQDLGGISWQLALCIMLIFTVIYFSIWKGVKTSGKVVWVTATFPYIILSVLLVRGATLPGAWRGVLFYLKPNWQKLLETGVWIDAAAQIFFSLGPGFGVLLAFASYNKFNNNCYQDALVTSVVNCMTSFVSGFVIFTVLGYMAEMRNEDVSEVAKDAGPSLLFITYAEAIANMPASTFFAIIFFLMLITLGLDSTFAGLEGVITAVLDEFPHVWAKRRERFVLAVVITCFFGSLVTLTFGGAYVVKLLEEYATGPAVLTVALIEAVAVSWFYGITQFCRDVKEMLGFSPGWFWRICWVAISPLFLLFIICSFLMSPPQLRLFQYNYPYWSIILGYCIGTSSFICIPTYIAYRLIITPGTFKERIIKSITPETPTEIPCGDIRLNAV
T1 sequence (Q01959 whole entry): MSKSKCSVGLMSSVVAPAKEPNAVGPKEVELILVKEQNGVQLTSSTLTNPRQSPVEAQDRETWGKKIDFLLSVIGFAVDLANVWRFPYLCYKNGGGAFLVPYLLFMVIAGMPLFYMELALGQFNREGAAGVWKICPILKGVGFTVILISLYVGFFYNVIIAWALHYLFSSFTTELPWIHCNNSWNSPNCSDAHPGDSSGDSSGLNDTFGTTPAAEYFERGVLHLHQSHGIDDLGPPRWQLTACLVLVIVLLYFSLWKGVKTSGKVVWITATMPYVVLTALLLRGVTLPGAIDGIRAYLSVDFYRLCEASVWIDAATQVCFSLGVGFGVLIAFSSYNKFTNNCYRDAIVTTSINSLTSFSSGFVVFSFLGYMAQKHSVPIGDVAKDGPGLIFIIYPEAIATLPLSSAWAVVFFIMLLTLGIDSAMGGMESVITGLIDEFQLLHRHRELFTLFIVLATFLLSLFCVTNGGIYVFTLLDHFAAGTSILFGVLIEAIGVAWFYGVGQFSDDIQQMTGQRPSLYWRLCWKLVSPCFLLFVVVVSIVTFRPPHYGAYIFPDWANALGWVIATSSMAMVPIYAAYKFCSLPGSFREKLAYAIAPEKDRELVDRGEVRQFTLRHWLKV

## CNC(C)C(=O)c1ccc(C)cc1 (stereo not drawn) [mephedrone]
hDAT [1]; ref Eshleman et al. 2013, Luethi et al. 2018
  DAT selectivity (DAT/SERT): 5.2 fold

## CNC(C)Cc1ccc2c(c1)OCO2 (stereo not drawn) [MDMA, reference compound]
hNET [2]; read-out: Inhibition of [3H]neurotransmitter uptake IC50 ± sem, hNET [3H]NE
  IC50: 0.63 µM
hSERT [3]
  % maximum release ± sem, hSERT [3H]5-HT: 85.1 ± 7.8%
hNET [4]; [15]
  EC50: 0.36 ± 0.092 µM
hNET [4]; relative to maximal METH release
  % maximum release ± sem, hNET [3H]NE: 147 ± 15%
hDAT [5]
  Ratio DAT/SERT: 0.25
hDAT [6]; [16]
  Ki: 31 ± 4.9 µM
hNET [7]; read-out: Inhibition of [125I]RTI-55 binding Ki ± sem, hNET
  Ki: 15.8 µM
hDAT [8]
  % maximum release ± sem, hDAT [3H]DA: 94 ± 10%

## CCCC(NC)C(=O)c1ccc2c(c1)OCO2 (stereo not drawn) [Pentylone]
hDAT [1]
  Ratio DAT/SERT: 4.9
hNET [9]
  IC50: 0.65 ± 0.16 µM

## CNC(C)Cc1cc2ccccc2o1 (stereo not drawn) [2-MAPB, N,α-dimethyl-2-benzofuranethanamine]
hSERT [10]
  releasing efficacy at hSERT: partial release
  % maximum release ± sem, hSERT [3H]5-HT: 77.3 ± 5.3%
hDAT [11]
  releasing efficacy at hDAT: partial release
  % maximum release ± sem, hDAT [3H]DA: 48.0 ± 2.6%
hNET [2]; [17]
  IC50: 0.0393 ± 0.0052 µM
hDAT [5]
  Ratio DAT/SERT: 3.0
hNET [12]
  releasing efficacy at hNET: partial release
  % maximum release ± sem, hNET [3H]NE: 63 ± 10%
hNET [12]; [15]
  EC50: 0.45 ± 0.12 µM
hDAT [6]; [16]
  Ki: 1.63 ± 0.44 µM
hNET [7]; [18]
  Ki: 1.99 ± 0.22 µM
Mouse striatum
  increase in extracellular 5-HT levels: 6- to 12 fold

## CCCC(Cc1ccccc1)N1CCCC1 (stereo not drawn) [Prolintane, 1-[1-(phenylmethyl)butyl]-pyrrolidine]
hNET [2]
  IC50: 0.046 ± 0.0068 µM
hDAT [5]
  IC50: 0.1 ± 0.021 µM
  Ratio DAT/SERT: 11
hDAT [6]
  Ki: 0.219 ± 0.019 µM
hNET [7]
  Ki: 0.56 ± 0.19 µM
hSERT [13]
  IC50: 1.11 ± 0.35 µM
hSERT [13]; compared to 4-F-α-PVP
  fold higher hSERT uptake potency: 40 fold
hSERT [14]
  Ki: 2.52 ± 0.33 µM

## CNC(C)Cc1ccc2occc2c1 (stereo not drawn) [5-MAPB, N,α-dimethyl-5-benzofuranethanamine]
hSERT [10]
  releasing efficacy at hSERT: fully efficacious
  % maximum release ± sem, hSERT [3H]5-HT: 104.3 ± 5.7%
hDAT [11]
  releasing efficacy at hDAT: partially efficacious
  % maximum release ± sem, hDAT [3H]DA: 53.8 ± 6.6%
hNET [2]; [17]
  IC50: 0.073 ± 0.018 µM
hDAT [5]
  Ratio DAT/SERT: 1.4
hNET [12]
  releasing efficacy at hNET: partially efficacious
  % maximum release ± sem, hNET [3H]NE: 89.0 ± 8.0%
hNET [12]; [15]
  EC50: 0.58 ± 0.21 µM
hDAT [6]; [16]
  Ki: 2.66 ± 0.61 µM
hNET [7]; [18]
  Ki: 3.15 ± 0.27 µM
Mouse striatum
  increase in extracellular 5-HT levels: 6- to 12 fold

## CCCC(NC)C(=O)c1ccccc1 (stereo not drawn) [Pentedrone]
hDAT [1]
  Ratio DAT/SERT: 51
hNET [9]
  IC50: 0.239 ± 0.067 µM

## CCNC(C)Cc1ccc2occc2c1 (stereo not drawn) [5-EAPB, reference compound]
Mouse striatum
  increase in extracellular 5-HT levels: 6- to 12 fold

## CNC(COC)C(=O)c1ccc(C)cc1 (stereo not drawn) [Mexedrone, 3-methoxy-2-(methylamino)-1-(p-tolyl)propan-1-one]
hSERT [10]
  EC50: 26.1 ± 9.3 µM
  releasing efficacy at hSERT: full efficacy
  % maximum release ± sem, hSERT [3H]5-HT: 84 ± 13%
hDAT [11]
  EC50: > 100 µM
  releasing efficacy at hDAT: no hDAT efficacy
  % maximum release ± sem, hDAT [3H]DA: 3.04 ± 0.61%
hNET [2]
  IC50: 3.19 ± 0.98 µM
hDAT [5]
  IC50: 2.75 ± 0.22 µM
  Ratio DAT/SERT: 2.0
hNET [12]
  EC50: > 61 µM
  releasing efficacy at hNET: minimal hNET efficacy
  % maximum release ± sem, hNET [3H]NE: 12.5 ± 3.1%
hDAT [6]
  Ki: 8.39 ± 0.54 µM
hNET [7]
  Ki: > 27.6 µM
hSERT [13]
  IC50: 5.4 ± 1.2 µM
hSERT [14]
  Ki: 22.2 ± 6.2 µM

## CN[C@@H](C)Cc1ccccc1 [METH, methamphetamine, reference compound]
hSERT [10]
  EC50: 14.5 ± 4.2 µM
  % maximum release ± sem, hSERT [3H]5-HT: 101.8 ± 3.1%
hDAT [11]
  EC50: 1.2 ± 0.35 µM
  % maximum release ± sem, hDAT [3H]DA: 106.7 ± 2.3%
hNET [2]; [17]
  IC50: 0.0258 ± 0.003 µM
hDAT [5]
  IC50: 0.097 ± 0.013 µM
  Ratio DAT/SERT: 96
hNET [12]
  EC50: 0.255 ± 0.078 µM
  % maximum release ± sem, hNET [3H]NE: 107.5 ± 8.7%
hDAT [6]
  Ki: 4.41 ± 0.43 µM
hNET [7]
  Ki: 2.51 ± 0.24 µM
hSERT [13]
  IC50: 9.3 ± 1.1 µM
hSERT [14]
  Ki: 150 ± 17 µM

## CCCC(C(=O)c1ccccc1)N1CCCC1 (stereo not drawn) [α-PVP]
hDAT [1]
  Ratio DAT/SERT: 2900
hNET [9]
  IC50: 0.046 ± 0.018 µM

## CNC(C)C(=O)c1cccc(C)c1 (stereo not drawn) [3-MMC, 3-methylmethcathinone]
hNET [2]; [17]
  IC50: 0.084 ± 0.023 µM
hDAT [5]
  Ratio DAT/SERT: 10
hDAT [6]; [16]
  Ki: 6.33 ± 0.72 µM
hNET [7]; [18]
  Ki: 2.85 ± 0.72 µM
hSERT [13]; compared to MCAT
  fold higher hSERT uptake potency: 6.5 fold
hSERT [14]; compared to MCAT
  fold higher hSERT affinity: ~ 40 fold

## CC(C(=O)c1ccc(Cl)cc1)N1CCCC1 (stereo not drawn) [4-Cl-α-PPP, 4’-chloro-α-pyrrolidinopropiophenone]
hNET [2]
  IC50: 1.42 ± 0.38 µM
hDAT [5]
  IC50: 0.73 ± 0.13 µM
  Ratio DAT/SERT: 8.8
hDAT [6]
  Ki: 1.3 ± 0.45 µM
hNET [7]
  Ki: 3.58 ± 0.92 µM
hSERT [13]
  IC50: 6.4 ± 1.5 µM
hSERT [14]
  Ki: 12.7 ± 3.2 µM

## CCCCC(C(=O)c1ccc(C)cc1)N1CCCC1 (stereo not drawn) [4-Me-α-PHP, 4’-methyl-α–pyrrolidinohexanophenone]
hNET [2]
  IC50: 0.042 ± 0.011 µM
hDAT [5]
  IC50: 0.0132 ± 0.0036 µM
  Ratio DAT/SERT: 120
hDAT [6]
  Ki: 0.023 ± 0.0062 µM
hNET [7]
  Ki: 0.75 ± 0.16 µM
hSERT [13]
  IC50: 1.58 ± 0.4 µM
hSERT [14]
  Ki: 4.78 ± 0.26 µM

## CCCCC(C(=O)c1ccc2c(c1)OCO2)N1CCCC1 (stereo not drawn) [3,4-MDPHP, 3,4-methylenedioxy-α–pyrrolidinohexanophenone]
hNET [2]
  IC50: 0.047 ± 0.01 µM
hDAT [5]
  IC50: 0.0084 ± 0.0022 µM
  Ratio DAT/SERT: 160
hDAT [6]
  Ki: 0.0192 ± 0.0051 µM
hNET [7]
  Ki: 0.935 ± 0.093 µM
hSERT [13]
  IC50: 1.34 ± 0.41 µM
hSERT [14]
  Ki: 2.43 ± 0.51 µM

## CNC(C)Cc1ccc2c(c1)CCO2 (stereo not drawn) [5-MAPDB, 1-(2,3-dihydrobenzofuran-5-yl)-N-methylpropan-2-amine]
hSERT [10]
  EC50: 0.34 ± 0.035 µM
  releasing efficacy at hSERT: fully efficacious
  % maximum release ± sem, hSERT [3H]5-HT: 95.7 ± 8.9%
hDAT [11]
  EC50: 34.7 ± 9.6 µM
  % maximum release ± sem, hDAT [3H]DA: 32 ± 13%
hNET [2]
  IC50: 0.56 ± 0.18 µM
hDAT [5]
  IC50: 2.79 ± 0.8 µM
  Ratio DAT/SERT: 0.041
hNET [12]
  EC50: 0.84 ± 0.31 µM
  % maximum release ± sem, hNET [3H]NE: 64.2 ± 4.7%
hDAT [6]
  Ki: > 30 µM
hNET [7]
  Ki: > 30 µM
hSERT [13]
  IC50: 0.113 ± 0.03 µM
hSERT [13]; uptake inhibition potencies
  selectivity for SERT over DAT (uptake potency): 25 fold
hSERT [14]
  Ki: 8.8 ± 1.7 µM

## CCNC(C)C(=O)c1ccc2c(c1)OCO2 (stereo not drawn) [ethylone]
hDAT [1]
  Ratio DAT/SERT: 0.27
